Data on one compound can be found in US8129384B2, “Imidazo[1,2-a]pyrazines as orexin receptor antagonists” (Glaxo Group Limited, priority 2008, dated 2012).

Molecules are shown by their SMILES. Structures can show the parent of a compound that is named as a salt.

The target of experiment [1] is T1, human cloned orexin-2 receptor (Homo sapiens, UniProt O43614).
T1 construct: expressed in transfected cells
T1 sequence (O43614 1-444): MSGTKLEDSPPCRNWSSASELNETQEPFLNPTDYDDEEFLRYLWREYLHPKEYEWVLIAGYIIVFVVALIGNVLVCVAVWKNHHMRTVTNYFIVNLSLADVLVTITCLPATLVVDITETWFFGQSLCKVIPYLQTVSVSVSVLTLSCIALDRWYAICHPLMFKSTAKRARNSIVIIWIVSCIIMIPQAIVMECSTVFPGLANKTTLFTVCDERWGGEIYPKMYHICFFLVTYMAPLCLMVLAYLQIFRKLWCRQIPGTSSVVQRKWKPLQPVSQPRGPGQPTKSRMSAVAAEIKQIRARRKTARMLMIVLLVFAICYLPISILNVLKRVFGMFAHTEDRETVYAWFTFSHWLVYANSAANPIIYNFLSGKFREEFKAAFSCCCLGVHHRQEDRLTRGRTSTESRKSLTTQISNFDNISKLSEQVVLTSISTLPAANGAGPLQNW
The experiment is described as follows: Antagonist affinity at human Orexin-2 receptor using FLIPR ([Ca2+]i). The settings on record: CHO-hOX2 cells, EC80 hOrexinA stimulus, functional pKi from IC50 by modified Cheng-Prusoff correction; read-out: fpKi value at the human cloned orexin-2 receptor (converted). Format: cell-based. As for the experimental part:
(§1) Determination of Antagonist Affinity at Human Orexin-1 and 2 Receptors Using FLIPR
(§2) Adherent Chinese Hamster Ovary (CHO) cells, stably expressing the recombinant human Orexin-1 (hOX1) or human Orexin-2 receptors (hOX2), were maintained in culture in Alpha Minimum Essential Medium (Gibco/Invitrogen, cat. no.; 22571-020), supplemented with 10% decomplemented foetal bovine serum (Life Technologies, cat. no. 10106-078) and 400 ug/mL Geneticin G418 (Calbiochem, cat. no. 345810). Cells were grown as monolayers under 95%:5% air:CO2 at 37° C. and passaged every 3-4 days. The highest passage used was 25. […]
(§3) An agonist stimulus 384-well plate containing 50 μL/well of human orexin A (hOrexinA) was prepared just before using by diluting with buffer a stock plate: final concentration is equivalent to the calculated EC80 for hOrexinA. […]
(§4) The loaded cells were then incubated for 10 min at 37° C. with test compound. The plates were then placed into a FLIPR™ (Molecular Devices, UK) to monitor cell fluorescence (λex=488 nm, λEM=540 nm) (Sullivan E, Tucker E M, Dale I L. Measurement of [Ca^2+]i using the fluometric imaging plate reader (FLIPR). In: Lambert D G (ed.), Calcium Signaling Protocols. New Jersey: Humana Press, 1999, 125-136). A baseline fluorescence reading was taken over a 5 to 10 second period, and then 10 μL of EC80 hOrexinA solution was added. […]

Experiment [2] has as its target T2, human cloned orexin-1 receptor (Homo sapiens, UniProt O43613).
T2 construct: expressed in transfected cells
T2 sequence (O43613 1-425): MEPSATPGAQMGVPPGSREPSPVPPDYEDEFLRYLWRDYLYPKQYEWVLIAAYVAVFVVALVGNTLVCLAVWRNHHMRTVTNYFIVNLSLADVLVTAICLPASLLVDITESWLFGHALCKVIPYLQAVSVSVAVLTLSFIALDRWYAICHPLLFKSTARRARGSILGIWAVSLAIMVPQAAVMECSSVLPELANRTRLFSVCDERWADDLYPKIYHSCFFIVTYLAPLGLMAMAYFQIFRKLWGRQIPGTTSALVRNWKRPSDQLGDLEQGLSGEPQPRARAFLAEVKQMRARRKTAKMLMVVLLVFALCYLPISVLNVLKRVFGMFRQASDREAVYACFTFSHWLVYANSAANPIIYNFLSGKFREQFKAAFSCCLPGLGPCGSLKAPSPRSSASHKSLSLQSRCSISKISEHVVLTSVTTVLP
The experiment is described as follows: Antagonist affinity at human Orexin-1 receptor using FLIPR ([Ca2+]i). Format: cell-based. The settings on record: CHO-hOX1 cells, EC80 hOrexinA stimulus, functional pKi from IC50 by modified Cheng-Prusoff correction; read-out: fpKi value at the human cloned orexin-1 receptor (converted). As to the method:
as §1, §2, §3, §4

As to `Cc1cn2cc(C[C@@H]3CCCCN3C(=O)c3nc(C)sc3-c3ccccc3)nc2c(C)n1` [Example 1, 6,8-dimethyl-2-({(2S)-1-[(2-methyl-5-phenyl-1,3-thiazol-4-yl)carbonyl]-2-piperidinyl}methyl)imidazo[1,2-a]pyrazine (HCl salt)], the Ki was 6.31 nM in experiment [1] and 5.01 nM in experiment [2].
